In data set [1] the test system is MeWo cells. As to the kind of experiment: Cell morphology after treatment (Example 6). It is filed as cell-based. To be noted: 100 μM, 6 hours.
The test system of data set [2] is WM115 cells. As to the kind of experiment: Cell morphology after treatment (Example 6). It is filed as cell-based. To be noted: 100 μM, 6 hours.
Data set [3] is described as follows: CellTiter-Glo cell viability assay (Example 9). It is filed as cell-based. To be noted: human; after 24-hour treatment; read-out: inhibition of cell viability. Here is the method: (§1) CellTiter-Glo® 2.0 assay was purchased from Promega. Cell seeding, preparation of the compound source plate, and exposure of cells to test compounds were performed as described in Example 8.
(§2) CellTiter-Glo® reagents were thawed and equilibrated to room temperature before the experiment. 40 μL of CellTiter-Glo® reagent was then added to each well for detection (at 1:1 ratio to culture medium). The plates were then incubated at room temperature for 30 minutes and read using EnSpire (PerkinElmer) plate reader. The remaining activity was calculated according to the following formula: Remaining Activity (%)=100%×(Lumsample−Lumbkg)/(Lumvehicle−Lumbkg).
(In general: In ATP-based viability assays light output follows the ATP content of the culture.)

A short description of data set [4]: CellTiter-Glo cell viability assay (Example 9). In kind it is cell-based. To be noted: human; after 24-hour treatment; read-out: inhibition of cell viability. Here is the method: as §1, §2
This is another data set of the same source.

For data set [5], the system named is WM115 cells. The data set is described as follows: Preliminary annexin V-FITC assay (Example 7). It is filed as cell-based. To be noted: 6-hour treatment, preliminary screen. Here is the method:
(§3) MeWo (ATCC® HTB-65™) and WM115 (ATCC® CRL-1675) cells were purchased from ATCC (Manassas, Va.) and maintained in the following: for MeWo:DMEM supplemented with 10% FBS; for WM115: RPMI 1640 supplemented with 10% FBS (10% FBS, 1% stabilized antibiotic anti-mycotic solution).
(§4) During the first set of studies, both MeWo and WM115 cells were treated with test compounds at 10 doses starting from 100 μM with 3-fold dilution. Staurosporine was used as positive control. After 6-hour treatment, cell apoptosis was assessed using an annexin V assay. The test compounds evaluated were CV-8684, CV-8685, CV-8686, CV-8687, and CV-8688.
(§5) For cell seeding, cells were harvested and the cell number was determined using Countess® cell counter. Cells were then diluted with culture medium to the desired density. 40 μL of cell suspension per well was added to the required number of wells in a 384-well plate (Corning 3712—clear bottom plate). The final cell density was 6,000 cells/well. After plating, the plates were incubated at 37° C., and 5% CO2 overnight.
(§6) For preparation of compound source plate, each test compound was dissolved in DMSO to 10 mM stock. 3-fold serial dilution was performed using an EVO200™ liquid handler (TECAN) to generate ten concentrations of test compound. 0.1% DMSO was employed as vehicle (negative) control. The compound source plate was then spun at room temperature at 1,000 RPM for 1 minute and agitated using a plate shaker for 2 minutes.
(§7) For compound treatment, 40 nL of compound were transferred from the compound source plate to the 384-well culture plate using liquid handler Echo550 (LabCyte Inc.). After 6-hour incubation, the plates were removed from the incubator for detection.
(§8) For the preliminary annexin V assay, the plates were removed from the incubator and allowed to equilibrate at room temperature for 15 minutes. Culture media was then removed. 20 μL of pre-mixed annexin V-FITC and Hoechst33342 dye working solution were added to each well. The cells were then incubated at room temperature for 20 minutes. […] Afterward, the plate was read using an Acumen eX3 plate reader. The relative activity was calculated according to the following formula: Activity (%)=100%×(CountAnnexin V/CountTotal cell), and EC50 was calculated using GraphPad Prism (v. 5.01).

Data set [6] deals with MeWo cells. As to the kind of experiment: Preliminary annexin V-FITC assay (Example 7). In kind it is cell-based. The conditions noted are these: 6-hour treatment, preliminary screen. Here is the method: as §3, §4, §5, §6, §7, §8
The target of data set [7] is T1, arylhydrocarbon receptor (AhR) (Homo sapiens, UniProt P35869).
T1 sequence (P35869 11-848): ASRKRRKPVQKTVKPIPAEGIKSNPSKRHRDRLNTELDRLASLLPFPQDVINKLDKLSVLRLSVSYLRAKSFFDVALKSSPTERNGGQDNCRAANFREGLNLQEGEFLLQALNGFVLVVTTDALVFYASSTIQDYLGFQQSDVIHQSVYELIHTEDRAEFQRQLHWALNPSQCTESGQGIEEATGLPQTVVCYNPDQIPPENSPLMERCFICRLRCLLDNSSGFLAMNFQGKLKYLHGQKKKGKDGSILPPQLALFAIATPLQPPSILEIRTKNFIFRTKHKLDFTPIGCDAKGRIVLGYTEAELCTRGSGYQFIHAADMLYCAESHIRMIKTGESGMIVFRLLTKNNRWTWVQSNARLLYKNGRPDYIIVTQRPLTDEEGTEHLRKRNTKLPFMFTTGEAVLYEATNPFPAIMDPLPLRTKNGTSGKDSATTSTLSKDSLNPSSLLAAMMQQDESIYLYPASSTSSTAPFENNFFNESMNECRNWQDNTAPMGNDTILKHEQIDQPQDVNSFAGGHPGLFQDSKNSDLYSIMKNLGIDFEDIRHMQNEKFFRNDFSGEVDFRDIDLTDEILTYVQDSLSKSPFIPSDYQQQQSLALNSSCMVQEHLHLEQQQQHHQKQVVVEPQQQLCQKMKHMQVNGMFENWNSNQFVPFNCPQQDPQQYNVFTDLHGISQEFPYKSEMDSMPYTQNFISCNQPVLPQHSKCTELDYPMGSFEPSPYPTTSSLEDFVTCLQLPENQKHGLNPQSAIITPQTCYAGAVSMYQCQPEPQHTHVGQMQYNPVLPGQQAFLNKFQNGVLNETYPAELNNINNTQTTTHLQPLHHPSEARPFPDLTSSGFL
As to the kind of experiment: HepG2-AhR-Luciferase assay. The conditions noted are these: EC50 (uM), 24 hours of treatment.
Method: HepG2-AhR-Luc cells were purchased from Pharmaron, One-Glo Luciferase assay system was purchased from Promega. DMEM was purchased from Hyclone, and penicillin/streptomycin was purchased from Solabio.
Culture media for stably transfected HepG2 cells was prepared by supplementing DMEM with high glucose and L-glutamine, as well as 10% FBS.
HepG2-AhR-Luc cells were cultured in T-75 flasks at 37° C., 5% CO2, and 95% relative humidity. Cells were allowed to reach 80-90% confluence before detachment and splitting.
Cultivated cells were rinsed with 5 mL PBS. PBS was aspirated away, 1.5 mL trypsin was added to the flask, and cells were incubated at 37° C. for approximately 5 minutes or until the cells detached and floated. Trypsin was inactivated by adding excess serum-containing media.
The cell suspension was transferred to a conical tube and centrifuged at 120 g for 10 minutes to pellet the cells. Cells were resuspended in seeding media at a proper density. 40 μL of cells were transferred to a 384-well culture plate (5×10^3 cells/well). Plates were placed in the incubator at 37° C. for 24 hours.
Afterward, stock solutions of test compounds and omeprazole positive control were prepared. Compound solutions were transferred into the assay plate using Echo550. The plate was then placed back into the incubator for compound treatment.
Later, after 24 hours of treatment, the plate was removed from the incubator and allowed to cool at ambient temperature. 30 μL One-Glo reagent equal to that of the culture medium was added in each well. Cells were allowed to lyse for at least 3 minutes, and then measured in a luminometer.
Dose responses were graphed using the non-linear regression analysis in XLfit and EC50 values were also calculated.

The next data set has as its system MelanoDerm™ Skin Model. As to the kind of experiment: MelanoDerm Study 2, melanin assay (Example 19). In kind it is cell-based, human. The conditions noted are these: 500 μM, 7-day period. Here is the method: The study also evaluated the potential dermal irritation induced by each test article as measured by the conversion of MTT by MelanoDerm™ tissues after repeated exposures to the test articles, over the 7 day treatment period.
The test articles, Malassezin (CV-8684), Compound B (CV-8877), Compound E (AB12508), Compound H (AB12509), an unknown composition, Compound A5 (CV-8819), and 052 (AB12976), were prepared by diluting the stock concentrations with EPI-100-LLMM to final concentrations of 200 μM and 500 μM. The test article, Compound I (CV-8686), was prepared by diluting the stock concentration to 500 μM. All of the dilutions were vortexed for at least 1 minute, and then heated in a water bath at 37°±1° C. for 15 minutes. The dilutions were then vortexed again for at least 1 minute prior to being dosed on the tissues. The test article and solvent control, DMSO, was prepared as a 0.5% (v/v) dilution in EPI-100-LLMM. The test article dilution was vortexed for at least 1 minute and then again for at least 1 minute prior to being applied onto the tissues. […]
The raw absorbance data were captured. The OD490 value of each melanin standard was determined. […] The corrected OD490 value of each melanin standard concentration was determined by subtracting the OD490 value of the blank well from the OD490 value of the melanin standard concentration. […]

In another data set the test system is yeast model. To be noted: cited from earlier work.

Structures are written as SMILES. Like-named read-outs stand apart in the source and are kept apart here.

As to `CN[C@@H]1C[C@H]2O[C@@](C)([C@@H]1OC)n1c3ccccc3c3c4c(c5c6ccccc6n2c5c31)C(=O)NC4` [Staurosporine, reference compound], the cell morphology result in the data set on MeWo cells [1] and in the data set with WM115 cells [2] was “significantly affected” each time. For the same compound, the cytotoxicity at 24 h in [3] and in data set [4] was 100% in each case. Further, the “annexin V staining” value in the data set with WM115 cells [5] and in the data set on MeWo cells [6] was “greatly increased annexin V staining” each time.

For orientation: EC50 means the concentration needed to bring the measured effect to its halfway point. In the case of `O=Cc1c(C(c2c[nH]c3ccccc23)C2CC2)[nH]c2ccccc12` (stereo not drawn) [AB12508], the EC50 in data set [7] (Table 1) is 15.4 µM; in data set [7] (Table 2) it was 14.2 µM. Besides, the melanin concentration in the data set on MelanoDerm™ Skin Model was found to be 25.26 µg/mL.

`O=C1OC(c2c[nH]c3ccccc23)=C(c2c[nH]c3ccccc23)C1=O` [pityrialactone, Pityrialactone]: in the data set on yeast model, the UV protective properties result was “confirmed”.

The compound `COC(=O)c1c(C(C)c2c[nH]c3ccccc23)[nH]c2ccccc12` (stereo not drawn) [Compound B (CV-8877)] registered an EC50 in [7] (Table 2) of 13.8 µM. Moreover, the melanin concentration with MelanoDerm™ Skin Model is 25.99 µg/mL.

The values are drawn from patent US11220491B2, “Photoprotective compositions containing Malassezia-derived compounds and/or chemical analogs thereof” (Versicolor Technologies, LLC, priority 2018, dated 2022).
